In the test the target is T1, Vitamin D3 receptor (Homo sapiens, UniProt P11473).
T1 sequence (P11473 whole entry): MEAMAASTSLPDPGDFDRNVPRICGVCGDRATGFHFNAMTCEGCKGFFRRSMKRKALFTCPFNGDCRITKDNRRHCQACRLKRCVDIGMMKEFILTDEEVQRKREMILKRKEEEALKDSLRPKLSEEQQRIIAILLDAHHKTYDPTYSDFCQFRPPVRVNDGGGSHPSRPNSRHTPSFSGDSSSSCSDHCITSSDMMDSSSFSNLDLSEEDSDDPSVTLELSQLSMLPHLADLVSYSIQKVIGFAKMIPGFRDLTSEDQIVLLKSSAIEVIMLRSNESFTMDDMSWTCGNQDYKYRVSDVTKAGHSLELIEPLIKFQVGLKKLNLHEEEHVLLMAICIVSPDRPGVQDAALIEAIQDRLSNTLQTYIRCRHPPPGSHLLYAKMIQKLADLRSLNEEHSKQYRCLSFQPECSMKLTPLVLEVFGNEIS
Kind of test: Binding affinity to full length human VDR by Competitive binding assay.

Consider one compound from BindingDB's records for doi:10.1021/acs.jmedchem.3c01371 (University of Santiago De Compostela, 2023).

In general, IC50 refers to the midpoint of a concentration-inhibition curve. As for `C=C1/C(=C\C=C(/C)c2cccc(CCC#CCC(O)(C(F)(F)F)C(F)(F)F)c2)C[C@@H](O)C[C@@H]1O`, the IC50 is 4.6 nM. This lies in the single-digit nanomolar range.
